pIC50: −log10 of the molar value.
What was measured:
[1] = tested on: carrageenan inflammatory pain model SD rats; assay: Measurement of analgesic effect, carrageenan inflammatory pain model, hot plate; assay type: in vivo; details: intragastric suspension 15 mg/mL, 1 hour before modeling, FIG. 6
Method: Male SD rats (6 to 8 weeks old) (SPF (Beijing) Biotechnology Co., Ltd.) were subcutaneously injected with 50 μL of 1% λ-carrageenan saline solution at planta to prepare an inflammatory pain model (Rose T E, Morisseau C, Liu J Y, et al. 1-Aryl-3-(1-acylpiperidin-4-yl)urea inhibitors of human and murine soluble epoxide hydrolase: structure-activity relationships, pharmacokinetics, and reduction of inflammatory pain. J Med Chem, 2010, 53(19): 7067-7075). The compounds of Examples 12 and 40 were added to 0.5% sodium carboxymethylcellulose solution and ground to prepare a suspension with a concentration of 15 mg/mL. 1 hour before modeling, the rats were intragastrically administrated. The changes in the paw withdrawal time of rats were measured with a hot plate dolorimeter.

[2] = target: T1, sEH enzyme (human recombinant) (Homo sapiens, UniProt P34913); assay: in vitro IC50 of soluble epoxide hydrolase (sEH) by fluorescence analysis; assay type: biochemical
T1 construct: purchased Cayman Chemical
T1 sequence (P34913 1-555): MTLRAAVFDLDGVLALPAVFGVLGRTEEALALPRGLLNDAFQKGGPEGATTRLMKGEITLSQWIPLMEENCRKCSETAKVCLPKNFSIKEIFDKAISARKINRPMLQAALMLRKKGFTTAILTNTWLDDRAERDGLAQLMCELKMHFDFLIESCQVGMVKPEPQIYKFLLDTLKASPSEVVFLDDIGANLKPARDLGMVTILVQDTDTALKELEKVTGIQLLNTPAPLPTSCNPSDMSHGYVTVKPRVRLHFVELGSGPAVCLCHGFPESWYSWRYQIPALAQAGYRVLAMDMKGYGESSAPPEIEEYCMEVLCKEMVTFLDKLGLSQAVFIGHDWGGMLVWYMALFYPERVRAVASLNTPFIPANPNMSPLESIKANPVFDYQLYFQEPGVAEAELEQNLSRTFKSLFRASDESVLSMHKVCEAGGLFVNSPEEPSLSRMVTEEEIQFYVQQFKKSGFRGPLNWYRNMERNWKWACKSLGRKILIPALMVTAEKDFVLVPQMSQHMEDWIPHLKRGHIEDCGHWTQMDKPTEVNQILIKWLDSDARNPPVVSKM
Method: The benzothiazole skeleton compounds according to the above formula I of the present invention were tested for the in vitro sEH enzyme activity by fluorescence analysis. […] 12 μL of sEH enzyme (human recombinant, 0.5 mg/mL, Cayman Chemical) was diluted with 588 μL of buffer (25 mM bis-Tris, pH 7.0). […] The inhibitions at different concentrations for the compound were respectively measured in accordance with the inhibition assay, to calculate IC50.

[3] = tested on: carrageenan-induced paw swelling in KM mice; assay: Measurement of anti-inflammatory effect, carrageenan-induced paw swelling; assay type: in vivo; details: intraperitoneal injection 1 hour before carrageenan, FIG. 3
Method: 1 hour in advance, the mice were intraperitoneally injected with the solutions of the compounds of Examples 12, 18, 27, and 40 (10% PEG 400, 10% Tween 80) or the blank solvent, respectively. Taking the initial paw thickness of the mice before modeling as 100%, the changes in the paw thickness of the mice were measured.

[4] = tested on: lipopolysaccharide-injected KM mice, forced swimming test; assay: Measurement of antidepressant effect, lipopolysaccharide / forced swimming test; assay type: in vivo; details: subcutaneous injection 23 hours after lipopolysaccharide, test 1 hour later, FIG. 7
Method: Male KM mice (6 to 8 weeks old) (SPF (Beijing) Biotechnology Co., Ltd.) swam in advance for 10 min, and were injected with lipopolysaccharide (0.5 mg/kg). After 23 hours, the mice were subcutaneously injected with the solutions of the compounds of Examples 12 and 40 or the blank solvent. After 1 hour, the mice were subjected to the forced swimming test for 6 min, and the immobility time (s) in later 4 minute for the mice in each group was recorded.

[5] = tested on: STZ-induced retinopathy model Wistar rats; assay: Improvement effect on diabetic retinopathy, STZ-induced retinopathy model; assay type: in vivo; details: 0.1% eye drops topically every day, after 6 months, FIG. 5
Method: Male Wistar rats (180 to 200 g) (Experimental Animal Center, Hebei Medical University) were intraperitoneally injected with streptozotocin STZ (60 mg/kg) to prepare a diabetic model, and were fed for 3 months to induce a retinopathy model (Miyamoto K, Khosrof S, Bursell S E, et al. Prevention of leukostasis and vascular leakage in streptozotocin-induced diabetic retinopathy via intercellular adhesion molecule-1 inhibition. Proc Natl Acad Sci USA, 1999, 96(19): 10836-10841). The compound of Example 40 was dissolved in 10% hydroxypropyl-p-cyclodextrin solution, to be prepared into eye drops with a content of 0.1% for the compound of Example 40. The rats were topically administrated in eyes every day.

[6] = target: T1, sEH enzyme (human recombinant); assay: in vitro sEH enzyme activity by fluorescence analysis, single concentration inhibition; assay type: biochemical; details: compound 0.1 μM; human recombinant sEH; PHOME substrate; 37° C. 15 min; read-out: sEH % inhibition, @ 0.1 μM
Method: The benzothiazole skeleton compounds (concentration: 0.1 μM) according to the above formula I of the present invention were tested for the in vitro sEH enzyme activity by fluorescence analysis.
12 μL of sEH enzyme (human recombinant, 0.5 mg/mL, Cayman Chemical) was diluted with 588 μL of buffer (25 mM bis-Tris, pH 7.0). The fluorescent substrate was PHOME (cyano-(6-methoxy-naphthalen-2-yl)-methyl (3-phenyl-oxiranyl)-acetate) in DMSO (10 μM, Cayman Chemical). The compound to be tested was dissolved in 100% DMSO at a concentration of 4 μM. 185 μL of buffer (25 mM bis-Tris, pH 7.0), 5 μL of compound solution, and 5 μL of diluted sEH enzyme were added to the wells of a 96-well plate, and finally 5 μL of substrate solution was added to initiate the reaction. After incubating at 37° C. for 15 min, the fluorescence signal was measured with a microplate reader (excitation wavelength 330 nm, emission wavelength 465 nm).
Inhibition (%)=(F0−F1)/(F0)×100.

Compound: O=C(Nc1ccc(Cl)cc1)Nc1nc2ccc(N(CCN3CCOCC3)C(=O)Nc3ccc(Cl)cc3)cc2s1 [Example 40, 1-{2-[3-(4-chlorophenyl)ureido]benzo[d]thiazol-6-yl}-1-[2-(4-morpholinyl)ethyl]-3-(4-chlorophenyl)urea]
- paw withdrawal time in hot plate dolorimeter [1]: significantly prolong the paw withdrawal time
- pIC50 [2]: 9.96
- carrageenan-induced paw swelling (paw thickness) [3]: significantly inhibit
- effect on paw swelling compared with celecoxib [3]: better than that of celecoxib
- immobility time in forced swimming [4]: significantly reduce the immobility time
- non-proliferative diabetic retinopathy symptoms (retinal capillary free pericytes, vascular leakage) [5]: significantly alleviated
- inhibition at 0.1 µM [6]: 43%
